Source: patent US20170071944A1, “MODULATORS OF TOLL-LIKE RECEPTORS FOR THE TREATMENT OF HIV” (Gilead Sciences, Inc., priority 2015, published 2017)

System: immune cell subsets in PBMC cultures from HIV-1 infected subjects on cART
Experiment: Induced immune cell activation in PBMC cultures from HIV-1 infected subjects on cART (flow cytometry)
Format: cell-based, human
Settings: for B Cells CD69 % / B Cells CD69 Fold vs DMSO / B Cells CD80 % / B Cells CD80 Fold vs DMSO / DCs CD69 % / DCs CD69 Fold vs DMSO / DCs CD80 % / DCs CD80 Fold vs DMSO / CD4+ T Cells CD25 % / CD4+ T Cells CD25 Fold vs DMSO / CD4+ T Cells CD69 % / CD4+ T Cells CD69 Fold vs DMSO / CD4+ T Cells Perforin % / CD4+ T Cells Perforin Fold vs DMSO / CD8+ T Cells CD25 % / CD8+ T Cells CD25 Fold vs DMSO / CD8+ T Cells CD28 % / CD8+ T Cells CD28 Fold vs DMSO / CD8+ T Cells CD38 % / CD8+ T Cells CD38 Fold vs DMSO / CD8+ T Cells CD69 % / CD8+ T Cells CD69 Fold vs DMSO / Monocytes CD11c % / Monocytes CD11c Fold vs DMSO / Monocytes CD69 % / Monocytes CD69 Fold vs DMSO / Monocytes CD80 % / Monocytes CD80 Fold vs DMSO / NK Cells CD25 % / NK Cells CD25 Fold vs DMSO / NK Cells CD69 % / NK Cells CD69 Fold vs DMSO: 2 days, geometric mean; for B Cells CD69 % / B Cells CD69 Fold vs DMSO / B Cells CD80 % / B Cells CD80 Fold vs DMSO / DCs CD69 % / DCs CD69 Fold vs DMSO / DCs CD80 % / DCs CD80 Fold vs DMSO: N = 4; for CD4+ T Cells CD25 % / CD4+ T Cells CD25 Fold vs DMSO / CD4+ T Cells CD69 % / CD4+ T Cells CD69 Fold vs DMSO / CD4+ T Cells Perforin % / CD4+ T Cells Perforin Fold vs DMSO / CD8+ T Cells CD25 % / CD8+ T Cells CD25 Fold vs DMSO / CD8+ T Cells CD28 % / CD8+ T Cells CD28 Fold vs DMSO / CD8+ T Cells CD38 % / CD8+ T Cells CD38 Fold vs DMSO / CD8+ T Cells CD69 % / CD8+ T Cells CD69 Fold vs DMSO / Monocytes CD11c % / Monocytes CD11c Fold vs DMSO / Monocytes CD69 % / Monocytes CD69 Fold vs DMSO / Monocytes CD80 % / Monocytes CD80 Fold vs DMSO / NK Cells CD25 % / NK Cells CD25 Fold vs DMSO / NK Cells CD69 % / NK Cells CD69 Fold vs DMSO: N = 6
Method: TLR8 modulating compound affects activation of distinct cell populations, PBMCs were purified from HIV-1 infected subjects on cART, as described in Example 121 (anonymized participant IDs 184, 185, 188, 189, 190, and 191). […] After incubation, PBMCs were harvested and stained with antibodies conjugated to specific fluorophores (BD Biosciences) to delineate immune cell subsets: CD4 T cells (CD3+ CD4+ CD8-), CD8 T cells (CD3+ CD8+ CD4-), NK cells (CD3-CD56+ CD16+), monocytes (CD3-CD14+), B cells (CD3-CD19+), and peripheral dendritic cells (DCs), defined as positive for HLA-DR and negative for a panel of markers: CD3, CD14, CD16, CD19, CD20, CD56 (Lin-1 lineage panel, BD Biosciences).
Additional markers of activation, maturation, and effector function were included for cell subsets, as follows: CD4 and CD8 T cells (CD25, CD38, CD69, IFN-γ, granzyme B, perforin, TNF-α), NK cells (CD25, CD69, IFN-γ), monocytes (CD11c, CD16, CD80, CD86, CD163, TNF-α), B cells (CD40, CD69, CD80, CD86), and DC (CD11c, CD69, CD80, CD86, CD123, and CD163). Cells were stained for surface markers (CD3, CD4, CD8, CD11c, CD14, CD16, CD25, CD69, CD80, CD86, CD163), washed, treated with fixation and permeabilization buffer (eBioscience), and stained for intracellular markers (IFN-γ, granzyme B, perforin, TNF-α). Cells were evaluated by flow cytometry on a LSR Fortessa (BD Biosciences), and data was analyzed with FlowJo software (TreeStar).
Data are expressed as geometric mean percentage (%) and as geometric mean fold-activation (Fold) for each marker and for each PBMC subset obtained from 4 or 6 subjects, as indicated. Fold activation is calculated as a ratio of the % positive for each marker for each PBMC subset at the indicated concentration of the compound of Example 15 relative to % positive for DMSO treated samples. Fold activations that are 1.5 are in bold.

CCCC[C@H](CO)Nc1nc(N)nc2cccnc12 [Example 15]
B Cells CD69 % (Example 15 1000 nM): 9.1% | B Cells CD69 Fold vs DMSO (Example 15 1000 nM): 1.1 fold | B Cells CD80 % (Example 15 1000 nM): 2.2% | B Cells CD80 Fold vs DMSO (Example 15 1000 nM): 1.4 fold | DCs CD69 % (Example 15 1000 nM): 8.5% | DCs CD69 Fold vs DMSO (Example 15 1000 nM): 3.3 fold | DCs CD80 % (Example 15 1000 nM): 82.0% | DCs CD80 Fold vs DMSO (Example 15 1000 nM): 2.9 fold | CD4+ T Cells CD25 % (Example 15 1000 nM): 4.2% | CD4+ T Cells CD25 Fold vs DMSO (Example 15 1000 nM): 1.8 fold | CD4+ T Cells CD69 % (Example 15 1000 nM): 11.7% | CD4+ T Cells CD69 Fold vs DMSO (Example 15 1000 nM): 1.5 fold | CD4+ T Cells Perforin % (Example 15 1000 nM): 14.2% | CD4+ T Cells Perforin Fold vs DMSO (Example 15 1000 nM): 1.8 fold | CD8+ T Cells CD25 % (Example 15 1000 nM): 0.7% | CD8+ T Cells CD25 Fold vs DMSO (Example 15 1000 nM): 2.2 fold | CD8+ T Cells CD28 % (Example 15 1000 nM): 0.4% | CD8+ T Cells CD28 Fold vs DMSO (Example 15 1000 nM): 4.4 fold | CD8+ T Cells CD38 % (Example 15 1000 nM): 56.8% | CD8+ T Cells CD38 Fold vs DMSO (Example 15 1000 nM): 2.0 fold | CD8+ T Cells CD69 % (Example 15 1000 nM): 10.4% | CD8+ T Cells CD69 Fold vs DMSO (Example 15 1000 nM): 2.2 fold | Monocytes CD11c % (Example 15 1000 nM): 1.2% | Monocytes CD11c Fold vs DMSO (Example 15 1000 nM): 1.6 fold | Monocytes CD69 % (Example 15 1000 nM): 6.2% | Monocytes CD69 Fold vs DMSO (Example 15 1000 nM): 2.0 fold | Monocytes CD80 % (Example 15 1000 nM): 86.4% | Monocytes CD80 Fold vs DMSO (Example 15 1000 nM): 3.0 fold | NK Cells CD25 % (Example 15 1000 nM): 5.2% | NK Cells CD25 Fold vs DMSO (Example 15 1000 nM): 10.4 fold | NK Cells CD69 % (Example 15 1000 nM): 21.1% | NK Cells CD69 Fold vs DMSO (Example 15 1000 nM): 12.4 fold | B Cells CD69 % (Example 15 3000 nM): 13.6% | B Cells CD69 Fold vs DMSO (Example 15 3000 nM): 1.7 fold | B Cells CD80 % (Example 15 3000 nM): 3.0% | B Cells CD80 Fold vs DMSO (Example 15 3000 nM): 1.9 fold | DCs CD69 % (Example 15 3000 nM): 23.2% | DCs CD69 Fold vs DMSO (Example 15 3000 nM): 8.9 fold | DCs CD80 % (Example 15 3000 nM): 57.1% | DCs CD80 Fold vs DMSO (Example 15 3000 nM): 2.0 fold | CD4+ T Cells CD25 % (Example 15 3000 nM): 3.0% | CD4+ T Cells CD25 Fold vs DMSO (Example 15 3000 nM): 1.3 fold | CD4+ T Cells CD69 % (Example 15 3000 nM): 13.1% | CD4+ T Cells CD69 Fold vs DMSO (Example 15 3000 nM): 1.7 fold | CD4+ T Cells Perforin % (Example 15 3000 nM): 17.0% | CD4+ T Cells Perforin Fold vs DMSO (Example 15 3000 nM): 2.1 fold | CD8+ T Cells CD25 % (Example 15 3000 nM): 0.9% | CD8+ T Cells CD25 Fold vs DMSO (Example 15 3000 nM): 3.0 fold | CD8+ T Cells CD28 % (Example 15 3000 nM): 0.5% | CD8+ T Cells CD28 Fold vs DMSO (Example 15 3000 nM): 4.7 fold | CD8+ T Cells CD38 % (Example 15 3000 nM): 56.8% | CD8+ T Cells CD38 Fold vs DMSO (Example 15 3000 nM): 2.0 fold | CD8+ T Cells CD69 % (Example 15 3000 nM): 11.6% | CD8+ T Cells CD69 Fold vs DMSO (Example 15 3000 nM): 2.5 fold | Monocytes CD11c % (Example 15 3000 nM): 1.5% | Monocytes CD11c Fold vs DMSO (Example 15 3000 nM): 2.1 fold | Monocytes CD69 % (Example 15 3000 nM): 7.9% | Monocytes CD69 Fold vs DMSO (Example 15 3000 nM): 2.6 fold | Monocytes CD80 % (Example 15 3000 nM): 77.4% | Monocytes CD80 Fold vs DMSO (Example 15 3000 nM): 2.7 fold | NK Cells CD25 % (Example 15 3000 nM): 4.8% | NK Cells CD25 Fold vs DMSO (Example 15 3000 nM): 9.6 fold | NK Cells CD69 % (Example 15 3000 nM): 20.1% | NK Cells CD69 Fold vs DMSO (Example 15 3000 nM): 11.8 fold | Concentrations of maximal activation of NK cells (increased expression of CD25 and CD69): 1000 nM | Concentrations of maximal activation of B cells (increased expression of CD69 and CD80): 3000 nM
